One assay deals with T1, MMP-14 (Homo sapiens, UniProt P50281).
T1 construct: The catalytic domain enzyme was expressed in E. coli inclusion bodies, solubilized in urea; made in house
The assay can be described thus: In vitro MMP inhibition, Ki determination (fluorogenic substrate II). To be noted: value outside parentheses; read-out: MMP-14 Ki. It is filed as biochemical. In short, it runs like this: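 Apparent Ki was fitted with Morrison's equation from reaction rates at a single low enzyme level. Enzyme was APMA- or trypsin-activated refolded MMP-14 catalytic domain, buffered at pH 7.5 with 10 mM CaCl2.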

The next assay has as its target T2, MMP-9 (Homo sapiens, UniProt P14780).
T2 construct: made in house; host or cells: MMP-9-transfected HT1080 cells (spent media)
Described as above. The assay is classed as biochemical. To be noted: value outside parentheses. In short, it runs like this:
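HT1080-derived MMP-9, activated with APMA, trypsin or MMP-3, incubated 1 hr at room temperature with inhibitor and 4 μM fluorogenic substrate II (at or below Km) in pH 7.5 Tris/NaCl/CaCl2 buffer; ex 330/em 420 nm. Ki from Morrison-equation regression, without substrate correction.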

T2 sequence (P14780 107-707 limits assumed): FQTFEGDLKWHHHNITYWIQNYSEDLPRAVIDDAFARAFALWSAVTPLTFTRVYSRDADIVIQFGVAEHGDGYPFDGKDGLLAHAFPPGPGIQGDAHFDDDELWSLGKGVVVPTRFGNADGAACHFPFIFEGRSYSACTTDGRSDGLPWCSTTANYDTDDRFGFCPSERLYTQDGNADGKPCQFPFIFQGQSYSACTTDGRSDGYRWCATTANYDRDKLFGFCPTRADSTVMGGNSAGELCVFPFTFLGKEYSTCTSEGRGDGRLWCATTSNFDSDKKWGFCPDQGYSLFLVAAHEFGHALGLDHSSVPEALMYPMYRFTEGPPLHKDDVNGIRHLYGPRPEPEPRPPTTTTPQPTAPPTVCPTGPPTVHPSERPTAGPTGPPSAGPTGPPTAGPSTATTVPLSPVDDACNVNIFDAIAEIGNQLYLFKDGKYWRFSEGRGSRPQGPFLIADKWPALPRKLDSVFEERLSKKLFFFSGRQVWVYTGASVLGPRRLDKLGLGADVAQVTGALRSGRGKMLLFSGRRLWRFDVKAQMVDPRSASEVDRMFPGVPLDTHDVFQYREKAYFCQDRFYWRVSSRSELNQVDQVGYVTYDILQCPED

`CCC=C1CCN(S(=O)(=O)C2(C(=O)NO)CCOCC2)CC1` [Example 374]: the Ki – broadly, a dissociation constant, usually derived from enzyme kinetics or from competition with a known ligand – worked out at 0.195 µM at MMP-14 and 0.219 µM on MMP-9. `CCCCc1cnc(N2CCN(S(=O)(=O)C3(C(=O)NO)CCN(CCOC)CC3)CC2)nc1` [Example 334]: the results for the Ki at MMP-14 and on MMP-9 were 5.77 µM and 0.00119 µM, respectively. In the case of `O=C(NO)C1(S(=O)(=O)N2CCC(c3ccc(OC(F)(F)C(F)F)cc3)CC2)CCOCC1` [Example 337], the Ki on MMP-14 turned out to be 1.61 µM; at MMP-9, 0.000792 µM. The corresponding values for `O=C(NO)C1(S(=O)(=O)N2CCN(c3ncc(-c4cccc(-c5ccccc5)c4)s3)CC2)CCOCC1` [Example 365] are over 10 µM and 1.24 µM.

Take `O=C(NO)C1(S(=O)(=O)N2CCC(COCC(F)(F)C(F)(F)C(F)(F)F)CC2)CCOCC1` [Example 377]: the results for the Ki on MMP-14 and on MMP-9 were over 10 µM and 0.174 µM, respectively. On the same counts, the results for `O=C(NO)C1(S(=O)(=O)N2CCN(c3ccc(OCCCC(F)(F)F)cc3)CC2)CC(O)C1` (stereo not shown) [Example 342] are over 10 µM and 0.108 µM. On the same counts, the results for `CCN1CCC(C(=O)NO)(S(=O)(=O)N2CCN(c3ccc(-c4ccccc4)c(F)c3)CC2)CC1` [Example 341] are 4.3 µM and 0.00377 µM. On the same counts, the results for `O=C(NO)C1(S(=O)(=O)N2CCC(c3ccc(OCC(F)(F)C(F)F)cc3)CC2)CCN(C2CC2)CC1` [Example 350] are 4.47 µM and 0.00121 µM. Turning to `CCCCOc1ccc(N2CCN(S(=O)(=O)C3(C(=O)NO)CCN(CCOC)CC3)CC2)nc1` [Example 325], the Ki was found to be 0.912 µM at MMP-14 and 0.00032 µM on MMP-9.

For `O=C(NO)C1(S(=O)(=O)N2CCN(c3ccc(CCCC(F)(F)F)cc3F)CC2)CCOCC1` [Example 386], the Ki at MMP-14 was over 10 µM; at MMP-9, 0.0049 µM. `COC(=O)c1ccc(N2CCN(S(=O)(=O)C3(C(=O)NO)CCOCC3)CC2)cc1` [Example 324]: the Ki on MMP-14 is 1.15 µM; on MMP-9, 0.00239 µM. The corresponding values for `CCCCc1ccc(C2CCN(S(=O)(=O)C3(C(=O)NO)CCN(CC)CC3)CC2)nc1` [Example 396] are 7.65 µM and 0.00039 µM.

Turning to `CC(C)c1ccc(-c2cnc(N3CCN(S(=O)(=O)C4(C(=O)NO)CCOCC4)CC3)s2)cc1` [Example 366], the values for the Ki at MMP-14 and at MMP-9 were 0.0503 µM and 0.00244 µM, respectively. The corresponding values for `O=C(NO)C1(S(=O)(=O)N2CCN(c3ncc(-c4ccc(F)cc4F)s3)CC2)CCOCC1` [Example 359] are 0.0429 µM and 0.00121 µM.

As for `O=C(NO)C1(S(=O)(=O)N2CCC(c3ccc(-c4ccc(C(F)(F)F)cc4)cn3)CC2)CCOCC1` [Example 395], the Ki came to 1.76 µM at MMP-14 and 0.0294 µM on MMP-9. On the same counts, the results for `O=C(NO)C1(S(=O)(=O)N2CCC(N3CCN(c4ccc(Cl)cc4)CC3)CC2)CCOCC1` [Example 315] are over 10 µM and 4.96 µM. On the same counts, the results for `CCc1ccc(-c2cnc(N3CCN(S(=O)(=O)C4(C(=O)NO)CCOCC4)CC3)s2)cc1` [Example 381] are 0.0541 µM and 0.00103 µM. In the case of `O=C(NO)C1(S(=O)(=O)N2CCN(c3ccc(-c4ccc(OC(F)(F)F)cc4)cc3)CC2)CCOCC1` [Example 327], the results for the Ki at MMP-14 and on MMP-9 were 1.37 µM and 0.0356 µM, respectively.

With `O=C(NO)C1(S(=O)(=O)N2CCC(c3ccc(CCCC(F)(F)F)cn3)CC2)CCOCC1` [Example 338], the values for the Ki at MMP-14 and on MMP-9 were 1.33 µM and 0.000738 µM, respectively. Consider `O=C(NO)C1(S(=O)(=O)N2CCC(c3ccc(-c4cccnc4)cn3)CC2)CCOCC1` [Example 390], for which the Ki on MMP-14 is over 10 µM; on MMP-9 it was 0.0532 µM. Consider `COCCN1CCC(C(=O)NO)(S(=O)(=O)N2CCN(c3ncccn3)CC2)CC1` [Example 332], for which the Ki is over 10 µM at MMP-14 and 0.26 µM at MMP-9. In the case of `CCCCc1ccc(C2CCN(S(=O)(=O)C3(C(=O)NO)CCOCC3)CC2)nc1` [Example 323], the Ki at MMP-14 was found to be 1.29 µM.

These data come from patent publication US20050209278A1, “Piperidinyl- and piperazinyl-sulfonylmethyl hydroxamic acids and their use as protease inhibitors” (priority 2002, published 2005).
